In US20020025974A1, “BICYCLE THIOPHENES AND THIAZOLES” (priority 1998, published 2002):
pKi: −log10 of the molar value. Structures can show the parent of a compound that is named as a salt. Where two headings read alike, the source gives them in different places.

Experiments:
[1] = molecular target: T1, Alpha-2D adrenergic receptor (Rattus norvegicus, UniProt P22909); assay: Alpha-2D adrenergic receptor binding assay (3H-para-aminoclonidine, rat cortex synaptic membranes); conditions: ligand 3H-para-aminoclonidine, 25° C. 20 min
T1 construct: aliquots of the synaptic membrane fraction, the ligand ^3H-para-aminoclonidine and test drug; from tissue; host or cells: rat brain cortex synaptic membrane fraction (male Wistar rats)
T1 sequence (P22909 1-465): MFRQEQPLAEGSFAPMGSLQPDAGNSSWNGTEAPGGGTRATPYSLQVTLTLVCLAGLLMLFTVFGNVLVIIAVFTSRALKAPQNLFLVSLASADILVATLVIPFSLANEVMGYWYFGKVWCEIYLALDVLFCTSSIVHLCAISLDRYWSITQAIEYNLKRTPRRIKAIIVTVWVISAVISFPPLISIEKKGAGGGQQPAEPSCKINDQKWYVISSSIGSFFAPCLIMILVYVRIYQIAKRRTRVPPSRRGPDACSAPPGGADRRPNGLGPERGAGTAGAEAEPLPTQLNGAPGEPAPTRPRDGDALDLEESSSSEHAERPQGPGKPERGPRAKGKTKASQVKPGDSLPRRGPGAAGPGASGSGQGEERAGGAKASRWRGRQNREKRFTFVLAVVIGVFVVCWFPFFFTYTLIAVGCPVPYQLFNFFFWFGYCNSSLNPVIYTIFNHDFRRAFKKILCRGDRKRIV
Protocol: Alpha-2D adrenergic receptor binding assay
Male, Wistar rats (150-250 g, VAF, Charles River, Kingston, N.Y.) are sacrificed by cervical dislocation and their brains removed and placed immediately in ice cold HEPES buffered sucrose. The cortex is dissected out and homogenized in 20 volumes of HEPES sucrose in a Teflon™-glass homogenizer. The homogenate is centrifuged at 1000 g for 10 min, and the resulting supernatant centrifuged at 42,000 g for 10 min. The resulting pellet is resuspended in 30 volumes of 3 mM potassium phosphate buffer, pH 7.5, preincubated at 25° C. for 30 min and recentrifuged. The resulting pellet is resuspended as described above and used for the receptor binding assay. […] The incubation is terminated by filtration of the tube contents through glass fiber filter sheets. Following washing of the sheets with 10 mM HEPES buffer, the adhering radioactivity is quantified by liquid scintillation spectrometry.
Binding of the test drug to the receptor is determined by comparing the amount of radiolabeled ligand bound in control tubes without drug to the amount of radiolabeled ligand bound in the presence of the drug. Dose-response data are analyzed with LIGAND, a nonlinear curve fitting program designed specifically for the analysis of ligand binding data.

SMILES	pKi ([1]; α2D Ki)	further results
c1nc(Cc2nc3c(s2)CCCC3)c[nH]1 (as salt: fumaric acid salt) [Cp-11]		melting point: 169 to 171 °C
c1ccc2sc(Cc3c[nH]cn3)cc2c1 [Cp-1]	8.96	
OC(c1c[nH]cn1)c1cc2ccccc2s1 (centres unmarked) [Cp-2]	7.13	
CC(c1c[nH]cn1)c1cc2ccccc2s1 (centres unmarked) [Cp-3]	7.85	
Brc1c(Cc2c[nH]cn2)sc2ccccc12 [Cp-4]	9.66	
c1ccc2c(Cc3c[nH]cn3)csc2c1 [Cp-6]	10.05	
c1ccc2sc(-c3c[nH]cn3)cc2c1 [Cp-9]		pKi ([1]; read-out: α2D Ki): 7.74
c1nc(Cc2nc3c(s2)CCCC3)c[nH]1 [Cp-11]		pKi ([1]; read-out: α2D Ki): 6.96
